Reference: patent US5595756A, “Liposomal compositions for enhanced retention of bioactive agents” (Inex Pharmaceuticals Corporation, priority 1993, dated 1997)

How the values were obtained:
[1] = tested on: P388 lymphocytic leukemia; assay: P388 antitumor activity (murine lymphocytic leukemia model), free and liposomal vincristine i.v.; details: for Median Survival / 60-day Survival: i.v.; for Median Survival: saline control 10.0; for 60-day Survival: survivors/total; for % ILS (increase in life span): from median survival, treated vs saline control
Description: The antitumor effects of liposomal vincristine were monitored using the P388 lymphocytic leukemia model. BDF1 mice (5 per group) were injected i.p. with 1×10^6 P388 cells. The indicated doses of saline or liposomal vincristine were administered (i.v.) 24 h after tumor inoculation. Animal weights and mortality were monitored daily. Mean and median survival times as well as the statistical significance of the results were determined using the Mann-Whitney-Wilcoxon procedure.
Murine P388 antitumor activity of the DSPC/Chol/GM1 pH 2 liposomal vincristine preparation was compared to free drug and DSPC/Chol pH 4 liposomal vincristine (Table I below).

[2] = Drug induced weight change in P388-bearing mice (% wt change on day 7); format: in vivo, BDF1 mice; details: i.v.
From the text: Animal weights and mortality were monitored daily.

[3] = drug dose 1.0 mg/kg, lipid dose 10 mg/kg
[4] = drug dose 2.0 mg/kg, lipid dose 20 mg/kg
[5] = drug dose 3.0 mg/kg, lipid dose 30 mg/kg

SMILES: CC[C@]1(O)C[C@H]2CN(CCc3c([nH]c4ccccc34)[C@@](C(=O)OC)(c3cc4c(cc3OC)N(C=O)[C@H]3[C@@](O)(C(=O)OC)[C@H](OC(C)=O)[C@]5(CC)C=CCN6CC[C@]43[C@@H]65)C2)C1 [Free Vincristine]
- Median Survival [1, 3]: 14.0 days
- 60-day Survival [1, 3]: 0/5
- % ILS (increase in life span) ([1]; drug dose 1.0 mg/kg): 40%
- Median Survival [1, 4]: 15.0 days
- 60-day Survival [1, 4]: 0/5
- % ILS (increase in life span) ([1]; drug dose 2.0 mg/kg): 50%
- Median Survival [1, 5]: 16.0 days
- 60-day Survival [1, 5]: 0/5
- % ILS (increase in life span) ([1]; drug dose 3.0 mg/kg): 60%
- long-term survivors ([1]; long-term = >70 days): No long-term survivors
- % wt change on day 7 [2, 3]: +1.9%
- % wt change on day 7 [2, 4]: +0.5%
- % wt change on day 7 [2, 5]: -13.4%
